Earlier results, collected in paper PMC12661886, “A phase 1/2 study of DS-1594 menin inhibitor in relapsed/refractory acute leukemias” (Journal of Hematology & Oncology, 2025).
Each block holds one compound with its values, some of them ahead of it.

How the values were obtained:
[1] = system: R/R KMT2A-r ALL/AML/MPAL or R/R NPM1mut AML
[2] = system: R/R NPM1mut, NUP98-r, KMT2A-r AML; design: method as in earlier work
[3] = system: KMT2A-r and NPM1mut R/R AML; design: method as in doi:10.1182/blood-2024-194827
[4] = system: MV4;11 cells harboring KMT2A-r with CRISPR-Cas9 induced menin mutations; design: method as in doi:10.1182/blood-2024-208887; conditions: menin mutations except M327
[5] = system: R/R AML
[6] = system: QT and QTc intervals; design: method as in Investigator Brochure; conditions: predicted by exposure-response analysis; ref Investigator Brochure
[7] = system: cell lines of KMT2A-r leukemia harboring MEN1-M327I or MEN1-T349M; design: method as in PMID 38905635

grade 3 or higher differentiation syndrome, patients ([1]; AUGMENT-101): 16% | overall DS rate ([1]; AUGMENT-101 study): about 28%
Compound: CCN(C(=O)c1cc(F)ccc1Oc1cncnc1N1CC2(CCN(C[C@H]3CC[C@H](NS(=O)(=O)CC)CC3)CC2)C1)C(C)C [revumenib]
grade 3 or higher QTc prolongation, patients [1]: 14% | median DOR, CR + CRh [1]: 6.4 months | median DOR, KMT2A-r acute leukemias with CR/CRh [1]: about 6 months | median duration of response (DOR), patients with an ORR [1]: 4.3 months | CR + CRh rate ([1]; AUGMENT 101): 23% | overall response rate (ORR) ([1]; AUGMENT 101): 63% | CR/CRh rate ([2]; SAVE regimen): 48% | consolidated with an HSCT ([2]; SAVE regimen): 39% | median duration of CR/CRh ([2]; about 9 months median follow-up): not achieved | ORR ([2]; combination with oral decitabine-cedazuridine and venetoclax): 82%

IC50 [4]: 0.0222 µM | all-grade DS ([5]; KOMET phase 1a and 1b (n = 83)): 21% | grade 3 DS ([5]; KOMET phase 1a and 1b (n = 83)): 14%
Compound: CNc1nc(NC2CCN(Cc3ccc4c(cc(C#N)n4C[C@H](C)N4CCN(S(C)(=O)=O)CC4)c3C)CC2)c2cc(CC(F)(F)F)sc2n1 [ziftomenib]
median DOR [5]: 6.6 months | responses in the dose finding phase [5]: no significant responses were observed | CR/CRh rate, R/R NPM1mut AML ([5]; 600 mg dose): 35% | patients achieving CR/CRh, NPM1mut AML previously treated with venetoclax ([5]; 600 mg dose): 5/7 | CR/CRh rate ([5]; RP2D 600 mg/day, phase 1b): 25%

Second part, the compound before the results:

Compound: C=C1C[C@@H]2CC[C@H]1[C@@H](C(=O)N1CCC3(CC1)CN(c1ncncc1Oc1ccc(F)cc1C(=O)N(C(C)C)C(C)C)C3)N2 [Enzomenib]
All grade DS, patients [3]: 10.7% | Grade 3 or higher DS, patients [3]: about 7% | CR + CRh rate, KMT2A-r R/R AML ([3]; 200 mg or 300 mg BID): 30% | CR + CRh rate, NPM1mut R/R AML ([3]; 200 mg or 300 mg BID): 47% | ORR, KMT2A-r R/R AML ([3]; 200 mg or 300 mg BID): 65% | ORR, NPM1mut R/R AML ([3]; 200 mg or 300 mg BID): 59%

Compound: COc1cc(-c2ccc(CN[C@H]3C[C@@H](O)[C@@H](N(C)c4ncnc5sc(CC(F)(F)F)cc45)C3)cc2)nnc1OC [DS-1594a]
plasma concentration to induce QTc interval prolongation by 10 milliseconds [6]: around 1000 ng/mL

Compound: CCN(C(=O)c1cc(F)ccc1Oc1nncnc1N1CCC2(C1)CN([C@H](CCCN(C)CCOC)C(C)C)C2)C(C)C [bleximenib]
IC50 [4]: 0.0033 µM | efficacy in menin-mutant cell lines [7]: showed efficacy
